From the NIST ThermoML archive (doi:10.1021/je1007907)
Numbers after ± are expanded uncertainties.

Details: Liquid

CCCCn1cc[n+](C)c1.F[B-](F)(F)F [1-butyl-3-methylimidazolium tetrafluoroborate]
Details | mass density [kg/m3]
239.75 K, 1875.4 kPa | 1243.62 ± 0.78
244.15 K, 9187.2 kPa | 1243.32 ± 0.82
244.15 K, 30106 kPa | 1251.69 ± 1
250.8 K, 41033 kPa | 1251.23 ± 1.1
251.15 K, 20631 kPa | 1242.83 ± 0.9
251.62 K, 1431.5 kPa | 1234.33 ± 0.76
256.79 K, 51047 kPa | 1250.8 ± 1.3
257.25 K, 10286 kPa | 1233.95 ± 0.8
257.26 K, 30540 kPa | 1242.41 ± 1
262.28 K, 59764 kPa | 1250.41 ± 1.4
263.49 K, 40569 kPa | 1241.97 ± 1.1
263.7 K, 20360 kPa | 1233.5 ± 0.88
264.47 K, 1197.4 kPa | 1225.08 ± 0.75
269.79 K, 50298 kPa | 1241.52 ± 1.2
270.25 K, 9963.8 kPa | 1224.68 ± 0.78
270.25 K, 30434 kPa | 1233.04 ± 0.97
275.57 K, 59083 kPa | 1241.11 ± 1.4
276.95 K, 19845 kPa | 1224.21 ± 0.86
276.97 K, 40555 kPa | 1232.57 ± 1.1
278.13 K, 1660 kPa | 1215.35 ± 0.74
283.48 K, 50231 kPa | 1232.1 ± 1.2
284.06 K, 30274 kPa | 1223.71 ± 0.97
284.1 K, 10163 kPa | 1214.93 ± 0.79
290.09 K, 59872 kPa | 1231.63 ± 1.4
291.27 K, 40686 kPa | 1223.19 ± 1.1
291.46 K, 20613 kPa | 1214.42 ± 0.88
292.09 K, 1445.8 kPa | 1204.99 ± 0.74
292.09 K, 1940.4 kPa | 1204.98 ± 0.74
298.12 K, 105.9 kPa | 1201.65 ± 0.74
298.12 K, 9550.8 kPa | 1204.57 ± 0.79
298.13 K, 10109 kPa | 1204.56 ± 0.79
298.14 K, 10428 kPa | 1204.76 ± 0.79
298.14 K, 29887 kPa | 1213.94 ± 0.99
298.58 K, 50942 kPa | 1222.67 ± 1.3
305.03 K, 19306 kPa | 1204.07 ± 0.88
305.53 K, 898.6 kPa | 1194.9 ± 0.74
305.54 K, 60508 kPa | 1222.17 ± 1.4
305.67 K, 40148 kPa | 1213.41 ± 1.1
313.03 K, 9790.3 kPa | 1194.22 ± 0.8
313.04 K, 29821 kPa | 1203.5 ± 1
313.04 K, 30149 kPa | 1203.7 ± 1
313.05 K, 10270 kPa | 1194.38 ± 0.8
313.06 K, 29280 kPa | 1203.51 ± 1
313.61 K, 50546 kPa | 1212.83 ± 1.3
320.1 K, 328.6 kPa | 1184.62 ± 0.74
320.51 K, 19693 kPa | 1193.85 ± 0.9
321.4 K, 60815 kPa | 1212.26 ± 1.4
321.61 K, 40890 kPa | 1202.88 ± 1.2
327.98 K, 48935 kPa | 1202.42 ± 1.3
328.18 K, 10050 kPa | 1184.05 ± 0.81
328.18 K, 28863 kPa | 1193.3 ± 1
328.18 K, 29052 kPa | 1193.14 ± 1
328.18 K, 29263 kPa | 1193.3 ± 1
328.22 K, 10050 kPa | 1184.05 ± 0.81
336.35 K, 39210 kPa | 1192.7 ± 1.2
336.68 K, 20276 kPa | 1183.44 ± 0.92
337.09 K, 59633 kPa | 1201.76 ± 1.5
344.2 K, 29113 kPa | 1182.9 ± 1
344.31 K, 48811 kPa | 1192.12 ± 1.3
353.68 K, 59697 kPa | 1191.42 ± 1.5
354.16 K, 40617 kPa | 1182.17 ± 1.2
